Measurements from patent US20040138234A1, “Histamine receptor antagonists” (Pfizer Inc, priority 2001, published 2004).
Structures can show the parent of a compound that is named as a salt.

How the values were obtained:
human eosinophils [1] = test: Inhibition of histamine-induced chemotaxis of human eosinophils (eosinophil pre-incubation method); format: cell-based; details: for IC50: Homo sapiens, Eosinophil, eosinophils pre-incubated with antagonist, concentration related; for effect on histamine-induced chemotaxis: at concentrations of 10 micromolar
Method: (§1) A further functional assay for the histamine H4 receptor determines the ability of histamine to induce chemotaxis in eosinophils isolated from human blood. In this assay cells are primed with interleukin 5 and the ability of histaminergic ligands to promote migration of eosinophils across a permeable membrane is studied. The number of cells migrating in a defined period is then counted. Agonist potencies are expressed as EC50 values. Antagonists can also be studied by pre-incubating eosinophils with the compound and then assessing the inhibitory effects on histamine (or other suitable ligand) on eosinophil chemotaxis. The experiments can be performed in one of two ways. Firstly, by increasing the concentration of antagonist versus fixed concentration of agonist and calculating the IC50 for each antagonist. Secondly, by increasing the concentration of antagonist versus increasing the concentration of agonist and expressing the antagonist potency as a pkb or pA2 value, as appropriate.

histamine H4 receptor = molecular target: T1, histamine H4 receptor (Homo sapiens, UniProt Q9H3N8); test: Histamine H4 receptor radioligand binding, HEK293 cell line membranes
T1 construct: expressed in transfected cells; host or cells: HEK293
T1 sequence (Q9H3N8 whole entry): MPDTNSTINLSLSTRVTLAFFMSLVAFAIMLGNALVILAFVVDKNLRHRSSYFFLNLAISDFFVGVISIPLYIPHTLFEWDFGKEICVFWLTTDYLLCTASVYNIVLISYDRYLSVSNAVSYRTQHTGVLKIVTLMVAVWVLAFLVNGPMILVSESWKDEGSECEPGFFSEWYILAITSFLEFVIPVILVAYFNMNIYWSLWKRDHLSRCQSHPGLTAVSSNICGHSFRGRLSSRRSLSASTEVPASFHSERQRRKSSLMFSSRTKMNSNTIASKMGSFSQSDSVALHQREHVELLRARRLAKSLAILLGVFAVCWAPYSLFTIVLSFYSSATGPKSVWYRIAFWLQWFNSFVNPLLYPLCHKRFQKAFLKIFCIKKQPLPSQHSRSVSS
Excerpt: The cDNA for the human histamine H3 and H4 receptor can be expressed in a suitable cell line such as HEK293 or CHO. In addition membranes can be prepared from tissues or cells which naturally express either the histamine H3 and/or H4 receptor. Affinity can be assessed at either receptor by assessing the ability of ligands to inhibit the binding of a suitable radioactively labelled ligand to membranes containing either the histamine H3 or H4 receptor. The potency of compounds is compared by calculating their pKI values.

human eosinophils [2] = test: Promotion of chemotaxis of interleukin 5 primed human isolated eosinophils (agonist mode); format: cell-based; details: interleukin 5 priming; for promotion of chemotaxis of human eosinophils: concentrations of from 10^−4 to 10^−5 M
Method: as §1

Which IC50 (human eosinophils [1]) does the source give for NC(=NCc1ccc(Cl)cc1)SCCCc1cnc[nH]1 [clobenpropit dihydrobromide] here?
The IC50 was 1500 nM.

NC(=NCc1ccc(Cl)cc1)SCCCc1cnc[nH]1 [Clobenpropit] was tested. Which Ki (histamine H4 receptor) did it give?
Its Ki is 6.61 nM.

With N=C(N)SCCc1cnc[nH]1 [imetit] as the compound, how does the “promotion of chemotaxis of human eosinophils” value (human eosinophils [2]) read?
Its value is “did not promote chemotaxis”.

Which “effect on histamine-induced chemotaxis” value (human eosinophils [1]) does the source give for CN/C(=N/CCSCc1nc[nH]c1C)NC#N [cimetidine] here?
The value was “little or no effect”.

For CN(C)CCCSC(=N)N [dimaprit], which “promotion of chemotaxis of human eosinophils” value (human eosinophils [2]) is on record?
The value was “did not promote chemotaxis”.

How did the “promotion of chemotaxis of human isolated eosinophils” value (human eosinophils [2]; concentration range 10^−8 to 10^−5 M) turn out when NCCc1c[nH]cn1 [histamine] was run?
Its value is “promoted chemotaxis”.

CC(CCCCC(=O)Nc1ccc(C(F)(F)F)cc1)NCCc1cnc[nH]1 (stereo not drawn) [HTMT] was tested. Which “promotion of chemotaxis of human eosinophils” value (human eosinophils [2]) did it give?
The value was “did not promote chemotaxis”.

With S=C(NC1CCCCC1)N1CCC(c2cnc[nH]2)CC1 [thioperamide maleate] as the compound, how does the IC50 (human eosinophils [1]) read?
The IC50 was 830 nM.

COc1ccc(CN(CCN(C)C)c2ccccn2)cc1 [mepyramine maleate] was tested. Which “effect on histamine-induced chemotaxis” value (human eosinophils [1]) did it give?
The value was “little or no effect”.
